What was measured:
Format in all cases: cell-based
[1] = biological target: T1, glucocorticoid receptor (Homo sapiens, UniProt P04150); assay: GRE reporter gene test (Experiment Example 2), HEK293T cells transfected with pGL4.35 and p-Bind GR Vector; details: for EC50: GRE reporter gene, HEK293T cells, 18-20 h incubation; for Emax: HEK-293T
T1 sequence (P04150 524-777 limits assumed): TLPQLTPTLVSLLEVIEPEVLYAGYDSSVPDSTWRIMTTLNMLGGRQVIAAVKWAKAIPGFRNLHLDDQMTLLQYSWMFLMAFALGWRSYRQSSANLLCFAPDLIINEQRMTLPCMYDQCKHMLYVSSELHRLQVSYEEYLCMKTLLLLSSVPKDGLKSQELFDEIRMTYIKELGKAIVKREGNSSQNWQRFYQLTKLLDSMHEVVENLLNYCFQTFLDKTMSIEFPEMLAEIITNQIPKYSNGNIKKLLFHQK
Experimental: The compound of the present invention to be tested was formulated into a 1 mM solution with DMSO, and then subjected to 4-fold dilution at 10 concentration points using DMSO to obtain a 1000× mother liquor, with a final test concentration of 0.0000038-1 μM.
(§1) HEK293T cells (ATCC) were plated in a 100 mm culture dish at a density of 6*10^6 cells/culture dish, and cultured for 16 h under the conditions of 37° C. and 5% CO2. Plasmids (pGL4.35 [luc2P/9XGAL4 UAS/Hygro], p-Bind GR Vector, Promega) and Lipofectamine® 3000 (Invitrogen) were mixed, added into the culture dish, and then incubated for 5-6 h under the conditions of 37° C. and 5% CO2.
In a 384-well plate (PerkinElmer), 25 nL of the compound mother liquor was added, and then HEK293T cells transfected with plasmids were added at a density of 18000 cells/well (25 μL). The cells were incubated for 18-20 h under the conditions of 37° C. and 5% CO2.
After the incubation was ended, 25 μL of britelite plus luciferase assay reagent (PerkinElmer) was added, and then reading was performed using an Envision 2105 multimode reader (PerkinElmer).
(§2) The activity was calculated using the following formula, % activity=100*(signal of compound well−average signal of negative control well)/(average signal of positive control well−average signal of negative control well). […] Fitting calculation of EC50 was performed on % activity and the logarithmic concentration of the compound using Graphpad 8.0, Y=Bottom+(Top−Bottom)/(1+10^((Log EC50−X)*HillSlope)), wherein Y is % activity, and X is the logarithmic concentration of the compound.

[2] = test system: mouse B cells; assay: In vitro inhibition of the proliferation of mouse B cells by the glucocorticoid; details: 4 days; for IC50: B-cell, 96 h, LPS 5 μg/ml stimulated mouse spleen B cells, live cells by flow cytometry; for in-vitro inhibitory activity on the proliferation of mouse B cells: LPS 5 μg/ml, ranking of the compounds
Experimental: According to instructions of the EasySEP mouse panB cell sorting kit (Stemcell/1984/1×100e9 cells), B cells were isolated from mouse spleen cells. After obtaining the B cells, they were resuspended in complete medium (1640+10% FBS+50 uM β-mercaptoethanol), and added to a 96-well cell culture plate at 1E5 cells/100 μL per well. 4×LPS (20 μg/ml) was prepared, and add to the plated cells at 50 μL per well, with a final concentration of 5 μg/ml. The glucocorticoid was diluted with complete medium in a 5-fold gradient, starting at a final concentration of 20 nM, and added to the plated cells at 50 μL per well. The cells were incubated in a 37° C. cell culture incubator for 4 days. Then PI was added to the cells for dead cell staining, and the number of live cells was detected by flow cytometry. The cell viability was calculated using the number of live cells in the untreated wells as the denominator. The cell viability values was imported into the GraphPad Prism 8 software to calculate IC50. The structure of the comparative compound 1 is as follows: […]

[3] = biological target: T2, glucocorticoid receptor (Homo sapiens, UniProt P04150); assay: In vitro activation activity of the glucocorticoid on the glucocorticoid receptor in Hela-MMTV luciferase reporter cells; details: 48 hours; for in vitro activation activity on the glucocorticoid receptor in the cells: Hela-MMTV cells, compared with comparative compound 1; for EC50: Hela-MMTV luciferase reporter cells
T2 sequence (P04150 1-777): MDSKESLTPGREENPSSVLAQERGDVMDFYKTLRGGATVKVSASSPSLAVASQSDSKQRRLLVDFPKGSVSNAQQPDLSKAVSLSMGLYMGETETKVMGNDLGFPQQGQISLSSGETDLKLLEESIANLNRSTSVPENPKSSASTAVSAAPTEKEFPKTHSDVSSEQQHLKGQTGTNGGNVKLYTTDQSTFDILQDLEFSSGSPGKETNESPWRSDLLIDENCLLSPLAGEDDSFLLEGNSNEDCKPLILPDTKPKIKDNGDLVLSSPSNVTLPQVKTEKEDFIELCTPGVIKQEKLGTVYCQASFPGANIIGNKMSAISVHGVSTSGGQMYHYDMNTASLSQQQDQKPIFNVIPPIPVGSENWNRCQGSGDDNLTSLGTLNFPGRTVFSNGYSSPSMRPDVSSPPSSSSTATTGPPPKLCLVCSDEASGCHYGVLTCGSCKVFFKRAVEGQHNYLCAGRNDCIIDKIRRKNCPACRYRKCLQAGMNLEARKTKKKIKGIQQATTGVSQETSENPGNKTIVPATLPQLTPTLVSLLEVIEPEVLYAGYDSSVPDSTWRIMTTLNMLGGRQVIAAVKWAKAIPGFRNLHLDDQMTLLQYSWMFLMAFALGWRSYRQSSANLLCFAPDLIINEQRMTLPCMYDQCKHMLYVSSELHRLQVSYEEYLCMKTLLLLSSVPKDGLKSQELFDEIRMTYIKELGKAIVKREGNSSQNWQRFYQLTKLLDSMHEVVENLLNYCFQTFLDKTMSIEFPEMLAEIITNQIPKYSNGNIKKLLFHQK
Experimental: The activation activity of the glucocorticoid on glucocorticoid receptor was tested in the constructed Hela-MMTV luciferase reporter system cells. Adherent Hela-MMTV cells were digested using a Trypsin-EDTA (0.25%) solution, counted, and the cells in a required number were resuspended in complete medium (1640+10% FBS). The cells were then plated in a 96-well cell culture plate at 10,000 cells/100 μl. The glucocorticoid was diluted in complete medium, starting at a final concentration of 75 nM, followed by 5-fold gradient dilution, and was added to the plated cells at 100 μl per well. The cells were incubated in a cell culture incubator at 37° C. for 48 hours. Then Bio-Lite luciferase assay reagent (Vazyme DD1201-03) was added to the cells at 20 μl per well, followed by homogeneously shaking for 10 minutes, and luminescence readings were obtained using a microplate reader. The data were imported into GraphPad Prism 8 software to calculate the EC50 value.

[4] = biological target: T1, glucocorticoid receptor; assay: GRE reporter gene test (Experiment Example 1), HEK293T cells transfected with pGL4.35 and p-Bind GR Vector
Experimental: The compound of the present invention to be tested was formulated into a 10 mM solution with DMSO, and then subjected to 4-fold dilution at 10 concentration points using DMSO to obtain a 1000× mother liquor, with a final test concentration of 0.000038-10 μM.
as §1
In a 384-well plate (PerkinElmer), 25 nL of the compound mother liquor was added, and then HEK293T cells transfected with plasmids were added at a density of 18000 cells/well. The cells were incubated for 18-20 h under the conditions of 37° C. and 5% CO2.
After the incubation was ended, 25 μL of britelite plus luciferase assay reagent (PerkinElmer) was added, and then reading was performed using an Envision 2105 multiplate reader (PerkinElmer).
as §2

[5] = compared with dexamethasone, transfected HEK293T cells

Structure (SMILES)	EC50 [1] [nM]	Emax [1] [%]	maximum agonistic activity (Emax) [1, 5]	IC50 [2] [nM]	in vitro activation activity on the glucocorticoid receptor in the cells [3]	EC50 [3] [nM]	in-vitro inhibitory activity on the proliferation of mouse B cells [2]	EC50 ([4]; GRE reporter gene, HEK293T cells, 18-20 h incubation) [nM]	Emax ([4]; HEK-293T, read-out: Emax) [%]	maximum agonistic effect (Emax) [4, 5]
C[C@@H]1C[C@H]2[C@@H]3C[C@H](F)C4=CC(=O)C=C[C@]4(C)[C@@]3(F)[C@@H](O)C[C@]2(C)[C@@]1(OC(=O)CCO)C(=O)SCF [D-5]	1.3	132	superior to dexamethasone	0.312	superior to comparative compound 1	0.154	–	–	–	–
C[C@H]1C[C@@]2(C)[C@@H](C[C@H]3O[C@@H](c4ccc(Cc5cccc(N)c5)cc4)O[C@]32C(=O)CO)[C@@H]2CCC3=CC(=O)C=C[C@]3(C)[C@H]21 [comparative compound 1, reference compound]	–	–	–	–	–	0.956	relatively the weakest inhibitory activity	–	–	–
C[C@]12C=CC(=O)C=C1[C@@H](F)C[C@H]1[C@@H]3CC[C@](OC(=O)c4ccc(F)c(N)c4)(C(=O)SCF)[C@@]3(C)C[C@H](O)[C@@]12F [A-1]	–	–	–	0.032	superior to comparative compound 1	0.0097	most strongest inhibitory activity	0.2	102	superior to dexamethasone
C[C@H](O)CC(=O)O[C@]1(C(=O)SCF)[C@H](C)C[C@H]2[C@@H]3C[C@H](F)C4=CC(=O)C=C[C@]4(C)[C@@]3(F)[C@@H](O)C[C@@]21C [D-15, (6S,8S,9R,10S,11S,13S,14S,16R,17R)-6,9-difluoro-17-(((fluoromethyl)thio)carbonyl)-11-hydroxy-10,13,16-trimethyl-3-oxo-6,7,8,9,10,11,12,13,14,15,16,17-dodecahydro-3H-cyclopenta[a]phenanthren-17-yl (S)-3-hydroxybutyrate]	1.4	102	–	–	–	0.074	–	–	–	–
C[C@H]1C[C@@]2(C)[C@@H](C[C@H]3O[C@@H](c4ccc(Cc5cccc(N)c5)cc4)O[C@]32C(=O)CO)[C@@H]2CCC3=CC(=O)C=C[C@]3(C)[C@H]21 [Comparative example 1]	–	–	–	0.825	–	–	–	–	–	–

— US20260199497A1, “GLUCOCORTICOID RECEPTOR AGONIST AND CONJUGATE THEREOF” (priority 2023, published 2026)
